The source of these data is patent US20180022750A1, “6-HYDROXYBENZOFURANYL- AND 6-ALKOXYBENZOFURANYL-SUBSTITUTED IMIDAZOPYRIDAZINES” (BAYER PHARMA AKTIENGESELLSCHAFT, priority 2014, published 2018).

pIC50: −log10 of the molar value.

Test [1] concerns the target T1, human full-length MKNK1 (Homo sapiens, UniProt Q9BUB5, T385D).
T1 construct: GST (Glutathione-S-Transferase) (N); purchased Carna Biosciences 02-145; host or cells: insect cells (baculovirus expression system)
Description: MKNK1 kinase high ATP assay (TR-FRET, 2 mM ATP). As to conditions: ATP 2 mM, 15 min preincubation, GST-MKNK1 (T344D). It counts as biochemical. The method, then:
MKNK1-inhibitory activity at high ATP of compounds of the present invention after their preincubation with MKNK1 was quantified employing the TR-FRET-based MKNK1 high ATP assay as described in the following paragraphs.
A recombinant fusion protein of Glutathione-S-Transferase (GST, N-terminally) and human full-length MKNK1 (amino acids 1-424 and T344D of accession number BAA 19885.1), expressed in insect cells using baculovirus expression system and purified via glutathione sepharose affinity chromatography, was purchased from Carna Biosciences (product no 02-145) and used as enzyme. As substrate for the kinase reaction the biotinylated peptide biotin-Ahx-IKKRKLTRRKSLKG (C-terminus in amide form) was used, which can be purchased e.g. from the company Biosyntan (Berlin-Buch, Germany).
(§1) For the assay 50 nL of a 100fold concentrated solution of the test compound in DMSO was pipetted into a black low volume 384well microtiter plate (Greiner Bio-One, Frickenhausen, Germany), 2 μL of a solution of MKNK1 in aqueous assay buffer [50 mM HEPES pH 7.5, 5 mM magnesium chloride, 1.0 mM dithiothreitol, 0.005% (v/v) Nonidet-P40 (Sigma)] was added and the mixture was incubated for 15 min at 22° C. to allow pre-binding of the test compounds to the enzyme before the start of the kinase reaction. Then the kinase reaction was started by the addition of 3 μL of a solution of adenosine-tri-phosphate (ATP, 3.3 mM=>final conc. in the 5 μL assay volume is 2 mM) and substrate (0.1 μM=>final conc. in the 5 μL assay volume is 0.06 μM) in assay buffer and the resulting mixture was incubated for a reaction time of 30 min at 22° C. The concentration of MKNK1 was adjusted depending of the activity of the enzyme lot and was chosen appropriate to have the assay in the linear range, typical concentrations were in the range of 0.003 μg/mL. The reaction was stopped by the addition of 5 μL of a solution of TR-FRET detection reagents (5 nM streptavidine-XL665 [Cisbio Bioassays, Codolet, France] and 1 nM anti-ribosomal protein S6 (pSer236)-antibody from Invitrogen [#44921G] and 1 nM LANCE EU-W1024 labeled ProteinG [Perkin-Elmer, product no. AD0071]) in an aqueous EDTA-solution (100 mM EDTA, 0.1% (w/v) bovine serum albumin in 50 mM HEPES pH 7.5).
(§2) The resulting mixture was incubated for 1 h at 22° C. to allow the formation of complex between the phosphorylated biotinylated peptide and the detection reagents. Subsequently the amount of phosphorylated substrate was evaluated by measurement of the resonance energy transfer from the Eu-chelate to the streptavidine-XL. Therefore, the fluorescence emissions at 620 nm and 665 nm after excitation at 350 nm were measured in a TR-FRET reader, e.g. a Rubystar (BMG Labtechnologies, Offenburg, Germany) or a Viewlux (Perkin-Elmer). The ratio of the emissions at 665 nm and at […] was taken as the measure for the amount of phosphorylated substrate. The data were normalised (enzyme reaction without inhibitor=0% inhibition, all other assay components but no enzyme=100% inhibition).
A general note: TR-FRET usually uses a lanthanide donor and a delayed reading to cut background.

Test [2] has as its target T2, human full-length MKNK1 (Homo sapiens, UniProt Q9BUB5).
T2 construct: GST (Glutathione-S-Transferase) (N); purchased Carna Biosciences 02-145; host or cells: insect cells (baculovirus expression system)
Briefly: MKNK1 kinase assay (TR-FRET, 10 μM ATP). It counts as biochemical. As to conditions: ATP 10 μM, 15 min preincubation, GST-MKNK1 (T344D).
Text: MKNK1-inhibitory activity of compounds of the present invention was quantified employing the MKNK1 TR-FRET assay as described in the following paragraphs.
A recombinant fusion protein of Glutathione-S-Transferase (GST, N-terminally) and human full-length MKNK1 (amino acids 1-424 and T344D of accession number BAA 19885.1), expressed in insect cells using baculovirus expression system and purified via glutathione sepharose affinity chromatography, was purchased from Carna Biosciences (product no 02-145) and used as enzyme. As substrate for the kinase reaction the biotinylated peptide biotin-Ahx-IKKRKLTRRKSLKG (C-terminus in amide form) was used which can be purchased e.g. form the company Biosyntan (Berlin-Buch, Germany).
as §1, with “16.7 μM=>final” for “3.3 mM=>final”, “10 μM)” for “2 mM)”, “45” for “30”, “0.05 μg/ml.” for “0.003 μg/mL.”
as §2

T2 sequence (Q9BUB5 1-424 isoform Q9BUB5-2 T344D): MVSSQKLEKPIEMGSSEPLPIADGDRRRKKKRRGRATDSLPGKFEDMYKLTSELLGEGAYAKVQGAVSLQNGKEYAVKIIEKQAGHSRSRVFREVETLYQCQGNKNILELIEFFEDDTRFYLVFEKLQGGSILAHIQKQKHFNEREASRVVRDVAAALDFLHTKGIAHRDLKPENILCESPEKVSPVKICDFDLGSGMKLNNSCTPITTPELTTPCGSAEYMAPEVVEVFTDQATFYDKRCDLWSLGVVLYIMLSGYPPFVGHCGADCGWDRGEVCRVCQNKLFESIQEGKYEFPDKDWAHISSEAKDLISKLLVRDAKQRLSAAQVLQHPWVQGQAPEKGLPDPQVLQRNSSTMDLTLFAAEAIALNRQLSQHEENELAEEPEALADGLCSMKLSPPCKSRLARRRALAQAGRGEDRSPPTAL
T1 sequence (Q9BUB5 1-424 isoform Q9BUB5-2 T344D): as above

Broadly, the pIC50 is the IC50 on a negative log10 scale, so that one unit is a factor of ten. A higher pIC50 goes with a small IC50. In the case of `COc1ccc2cc(-c3cnc4ccc(OCC(C)(C)CN(C)C)nn34)oc2c1` [Example 7, 3-{[3-(6-methoxy-1-benzofuran-2-yl)imidazo[1,2-b]pyridazin-6-yl]oxy}-N,N,2,2-tetramethylpropan-1-amine], the figures for the pIC50 against human full-length MKNK1 [1] and on human full-length MKNK1 [2] were 4.83 and 5.26, respectively.

In the case of `COc1ccc2cc(-c3cnc4ccc(OCCCN5CCOCC5)nn34)oc2c1` [Example 13, 3-(6-methoxy-1-benzofuran-2-yl)-6-[3-(morpholin-4-yl)propoxy]imidazo[1,2-b]-pyridazine], the pIC50 is 5.67 on human full-length MKNK1 [1] and 6.25 against human full-length MKNK1 [2].

`COc1ccc2cc(-c3cnc4ccc(O[C@H](C)CNC(C)=O)nn34)oc2c1` [Example 14, N-[(2R)-2-{[3-(6-methoxy-1-benzofuran-2-yl)imidazo[1,2-b]pyridazin-6-yl]oxy}-propyl]acetamide]: the figures for the pIC50 on human full-length MKNK1 [1] and against human full-length MKNK1 [2] were 5.42 and 6.00, respectively.

In the case of `C[C@H](CN)Oc1ccc2ncc(-c3cc4ccc(O)cc4o3)n2n1` [Example 4, 2-(6-{[(2R)-1-aminopropan-2-yl]oxy}imidazo[1,2-b]pyridazin-3-yl)-1-benzofuran-6-ol], the results for the pIC50 against human full-length MKNK1 [1] and against human full-length MKNK1 [2] were 7.38 and 7.31, respectively.

In the case of `COc1ccc2cc(-c3cnc4ccc(OCCN5CCNC5=O)nn34)oc2c1` [Example 12, 1-(2-{[3-(6-methoxy-1-benzofuran-2-yl)imidazo[1,2-b]pyridazin-6-yl]oxy}ethyl)-imidazolidin-2-one], the pIC50 is 5.62 at human full-length MKNK1 [1] and 6.39 at human full-length MKNK1 [2].

With `COc1ccc2cc(-c3cnc4ccc(OCCCN)nn34)oc2c1` [Example 6, 3-{[3-(6-methoxy-1-benzofuran-2-yl)imidazo[1,2-b]pyridazin-6-yl]oxy}propan-1-amine], the results for the negative-log IC50 (pIC50) at human full-length MKNK1 [1] and against human full-length MKNK1 [2] were 6.04 and 6.46, respectively.

`COc1ccc2cc(-c3cnc4ccc(OCCCCN)nn34)oc2c1` [Example 8, 4-{[3-(6-methoxy-1-benzofuran-2-yl)imidazo[1,2-b]pyridazin-6-yl]oxy}butan-1-amine]: the results for the pIC50 on human full-length MKNK1 [1] and against human full-length MKNK1 [2] were 6.10 and 6.66, respectively.

As to `COCCCOc1ccc2ncc(-c3cc4ccc(OC)cc4o3)n2n1` [Example 2, 3-(6-methoxy-1-benzofuran-2-yl)-6-(3-methoxypropoxy)imidazo[1,2-b]-pyridazine], the pIC50 on human full-length MKNK1 [1] was 5.26; against human full-length MKNK1 [2] it was 6.06.

`CCN(CC)CCCC(C)Oc1ccc2ncc(-c3cc4ccc(OC)cc4o3)n2n1` (stereo not drawn) [Example 10, N,N-diethyl-4-{[3-(6-methoxy-1-benzofuran-2-yl)imidazo[1,2-b]pyridazin-6-yl]-oxy}pentan-1-amine]: the pIC50 on human full-length MKNK1 [1] is 6.45; against human full-length MKNK1 [2] it was 6.90.

As to `CC(=O)NC[C@@H](C)Oc1ccc2ncc(-c3cc4ccc(O)cc4o3)n2n1` [Example 5, N-[(2R)-2-{[3-(6-hydroxy-1-benzofuran-2-yl)imidazo[1,2-b]pyridazin-6-yl]oxy}-propyl]acetamide], the pIC50 against human full-length MKNK1 [1] is 7.42; at human full-length MKNK1 [2], 7.40.

As to `COc1ccc2cc(-c3cnc4ccc(OCCCCN(C)C)nn34)oc2c1` [Example 9, 4-{[3-(6-methoxy-1-benzofuran-2-yl)imidazo[1,2-b]pyridazin-6-yl]oxy}-N,N-dimethylbutan-1-amine], the pIC50 on human full-length MKNK1 [1] was 6.00; against human full-length MKNK1 [2] it was 6.36.

Take `COc1ccc2cc(-c3cnc4ccc(OCCCO)nn34)oc2c1` [Example 1, 3-{[3-(6-methoxy-1-benzofuran-2-yl)imidazo[1,2-b]pyridazin-6-yl]oxy}propan-1-ol]: the results for the pIC50 against human full-length MKNK1 [1] and on human full-length MKNK1 [2] were 5.59 and 6.15, respectively.

On to `COc1ccc2cc(-c3cnc4ccc(OCCN)nn34)oc2c1` [Example 3, 2-{[3-(6-methoxy-1-benzofuran-2-yl)imidazo[1,2-b]pyridazin-6-yl]oxy}ethanamine], for which the pIC50 against human full-length MKNK1 [1] was 5.59; against human full-length MKNK1 [2] it was 6.01.

Turning to `COc1ccc2cc(-c3cnc4ccc(OCCC5CCCN5C)nn34)oc2c1` (stereo not drawn) [Example 11, 3-(6-methoxy-1-benzofuran-2-yl)-6-[2-(1-methylpyrrolidin-2-yl)ethoxy]imidazo-[1,2-b]pyridazine], the pIC50 at human full-length MKNK1 [1] was 5.94; against human full-length MKNK1 [2], 6.18.

Turning to `COc1ccc2cc(-c3cnc4ccc(O[C@H](C)CN)nn34)oc2c1` [Example 15, (2R)-2-{[3-(6-methoxy-1-benzofuran-2-yl)imidazo[1,2-b]pyridazin-6-yl]oxy}-propan-1-amine], the pIC50 at human full-length MKNK1 [1] was 5.55; against human full-length MKNK1 [2] it was 5.88.
